# Data taken from patent publication US12173018B2, “Penicillin-binding protein inhibitors” (priority 2018, dated 2024).
# Like-named read-outs stand apart in the source and are kept apart here.
# Experiments:
# [1] = system: N. gonorrhoeae WHO F; experiment: Liquid broth MIC, N. gonorrhoeae WHO F; format: cell-based; settings: Neisseria gonorrhoeae, read-out: Minimum Inhibitory Concentration, N. gonorrhoeae WHO F
# Procedure, shortened: (§1)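 Growth inhibition was scored by eye as the lowest compound concentration free of bacterial growth. Cultures from Kellogg's-supplemented GC agar, diluted to 5×10^5 CFU/mL, were exposed to serially diluted compound for 40-42 h at 36° C under 5% CO2.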
# [2] = system: N. gonorrhoeae FA19; experiment: Liquid broth MIC, N. gonorrhoeae FA19; format: cell-based; settings: Neisseria gonorrhoeae
# Procedure, shortened: as §1
# [3] = system: K. pneumoniae 848844; experiment: microbe, parasite or virus in culture; format: cell-based, Klebsiella pneumoniae; settings: Klebsiella pneumoniae; K. pneumoniae 848844 producing SHV-11 and KPC-2; read-out: MIC K. pneumoniae 848844
# Procedure, shortened: (§2)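 Strains are tested by standard CLSI broth microdilution. Log-phase cells, diluted by OD600 to 5×10^5 CFU/mL, meet 2-fold compound series and incubate 16-20 hours at 37° C before the lowest growth-free concentration is recorded.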
# [4] = system: N. gonorrhoeae ATCC 49226; experiment: Liquid broth MIC, N. gonorrhoeae ATCC 49226; format: cell-based; settings: Neisseria gonorrhoeae
# Procedure, shortened: as §1
# [5] = system: N. gonorrhoeae FA1090; experiment: Liquid broth MIC, N. gonorrhoeae FA1090; format: cell-based; settings: Neisseria gonorrhoeae
# Procedure, shortened: as §1
# [6] = system: E. coli 901C; experiment: microbe, parasite or virus in culture; format: cell-based; settings: Escherichia coli; hyper-permeable E. coli 901C, broth microdilution; read-out: MIC E. coli 901C
# Procedure, shortened: as §2
# [7] = system: E. coli AG100A; experiment: microbe, parasite or virus in culture; format: cell-based; settings: Escherichia coli, read-out: MIC E. coli AG100A
# Procedure, shortened: as §2
# [8] = system: K. pneumoniae UMM; experiment: microbe, parasite or virus in culture; format: cell-based; settings: Klebsiella pneumoniae; K. pneumoniae UMM producing SHV-5 and KPC-2; read-out: MIC K. pneumoniae UMM
# Procedure, shortened: as §2
# [9] = system: E. coli D22; experiment: microbe, parasite or virus in culture; format: cell-based; settings: Escherichia coli; hyper-permeable E. coli D22, broth microdilution; read-out: MIC E. coli D22
# Procedure, shortened: as §2
# [10] = system: K. pneumoniae SI-117; experiment: microbe, parasite or virus in culture; format: cell-based; settings: Klebsiella pneumoniae, SI117, read-out: MIC K. pneumoniae SI-117
# Procedure, shortened: as §2
# [11] = system: E. coli AG100; experiment: Broth microdilution MIC, E. coli AG100 (wild-type parent); format: cell-based; settings: Escherichia coli; wild-type parent E. coli AG100, broth microdilution; read-out: MIC E. coli AG100
# Procedure, shortened: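 Starting inoculum of 5×10^5 CFU/mL, from colonies grown 3-5 h in Mueller-Hinton broth with divalent cations, added to two-fold compound dilution series.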
# [12] = system: E. coli ATCC 25922; experiment: Broth microdilution MIC, E. coli ATCC 25922; format: cell-based; settings: Escherichia coli
# Procedure, shortened: as §2
# [13] = ATCC25922, read-out: MIC E. coli 25922
# [14] = N. gonorrhoeae WHO F, liquid broth
# [15] = N. gonorrhoeae FA19, liquid broth, read-out: Minimum Inhibitory Concentration, N. gonorrhoeae FA19
# [16] = ATCC49226, N. gonorrhoeae ATCC 49226, liquid broth, read-out: Minimum Inhibitory Concentration, N. gonorrhoeae ATCC 49226
# [17] = N. gonorrhoeae FA1090, liquid broth, read-out: Minimum Inhibitory Concentration, N. gonorrhoeae FA1090
# [18] = ATCC25922, E. coli ATCC 25922, broth microdilution, read-out: MIC E. coli 25922
Structure (SMILES),MIC [1] [µg/mL],"MIC ([2]; FA19, read-out: Minimum Inhibitory Concentration, N. gonorrhoeae FA19) [µg/mL]",MIC [3] [µg/mL],"MIC ([4]; ATCC49226, read-out: Minimum Inhibitory Concentration, N. gonorrhoeae ATCC 49226) [µg/mL]","MIC ([5]; FA1090, read-out: Minimum Inhibitory Concentration, N. gonorrhoeae FA1090) [µg/mL]",MIC [6] [µg/mL],MIC [7] [µg/mL],MIC [8] [µg/mL],MIC [9] [µg/mL],MIC [10] [µg/mL],MIC [11] [µg/mL],"MIC [12, 13] [µg/mL]","MIC [1, 14] [µg/mL]","MIC [2, 15] [µg/mL]","MIC [4, 16] [µg/mL]","MIC [5, 17] [µg/mL]","MIC [12, 18] [µg/mL]"
"CCN1C[C@H](CO)N(C(=O)NC(C(=O)N[C@H]2Cc3cccc(C(=O)O)c3OB2O)c2ncc(O)cc2F)C(=O)C1=O (stereo partly drawn) [Example 234, (3R)-3-(2-((R)-4-ethyl-6-(hydroxymethyl)-2,3-dioxopiperazine-1-carboxamido)-2-(3-fluoro-5-hydroxypyridin-2-yl)acetamido)-2-hydroxy-3,4-dihydro-2H-benzo[e][1,2]oxaborinine-8-carboxylic acid]",0.25 to 0.5,16 to 32,> 128,16 to 32,0.25 to 0.5,2 to 4,8 to 16,32 to 64,8 to 16,> 128,> 128,> 128,–,–,–,–,–
"NCCN1CCN(C(=O)N[C@@H](C(=O)N[C@H]2Cc3ccc(F)c(C(=O)O)c3OB2O)c2ncc(O)cc2F)C(=O)C1=O [Example 230, (R)-3-((R)-2-(4-(2-aminoethyl)-2,3-dioxopiperazine-1-carboxamido)-2-(3-fluoro-5-hydroxypyridin-2-yl)acetamido)-7-fluoro-2-hydroxy-3,4-dihydro-2H-benzo[e][1,2]oxaborinine-8-carboxylic acid]",–,–,32 to 64,–,–,0.5 to 1,2 to 4,8 to 16,2 to 4,8 to 16,8 to 16,–,0.25 to 0.5,4 to 8,4 to 8,1 to 2,8 to 16
"NCCN1CCN(C(=O)N[C@@H](C(=O)N[C@H]2Cc3cccc(C(=O)O)c3OB2O)c2ncc(O)cc2F)C(=O)C1=O [Example 225, (R)-3-((R)-2-(4-(2-aminoethyl)-2,3-dioxopiperazine-1-carboxamido)-2-(3-fluoro-5-hydroxypyridin-2-yl)acetamido)-2-hydroxy-3,4-dihydro-2H-benzo[e][1,2]oxaborinine-8-carboxylic acid]",–,–,32 to 64,–,–,0.5 to 1,0.5 to 1,8 to 16,2 to 4,8 to 16,8 to 16,–,0.25 to 0.5,4 to 8,16 to 32,0.25 to 0.5,8 to 16
"CCN1C[C@H](C)N(C(=O)NC(C(=O)N[C@H]2Cc3ccc(F)c(C(=O)O)c3OB2O)c2ncc(O)cc2F)C(=O)C1=O (stereo partly drawn) [Example 208, (3R)-3-(2-((S)-4-ethyl-6-methyl-2,3-dioxopiperazine-1-carboxamido)-2-(3-fluoro-5-hydroxypyridin-2-yl)acetamido)-7-fluoro-2-hydroxy-3,4-dihydro-2H-benzo[e][1,2]oxaborinine-8-carboxylic acid]",–,–,32 to 64,–,–,< 0.25,2 to 4,8 to 16,2 to 4,32 to 64,8 to 16,–,< 0.125,4 to 8,4 to 8,0.25 to 0.5,8 to 16
"CCN1CCN(C(=O)NC(C(=O)N[C@H]2Cc3cccc(C(=O)O)c3OB2O)c2ncc(O)cc2Cl)C(=O)C1=O (stereo partly drawn) [Example 150, (3R)-3-(2-(4-ethyl-2,3-dioxopiperazine-1-carboxamido)-2-(3-chloro-5-hydroxypyridin-2-yl)acetamido)-2-hydroxy-3,4-dihydro-2H-benzo[e][1,2]oxaborinine-8-carboxylic acid]",–,–,> 128,–,–,0.5 to 1,2 to 4,32 to 64,2 to 4,> 128,32 to 64,–,0.25 to 0.5,4 to 8,4 to 8,0.25 to 0.5,32 to 64
"CCN1CCN(C(=O)NC(C(=O)N[C@H]2Cc3cccc(C(=O)O)c3OB2O)c2csc(N)n2)C(=O)C1=O (stereo partly drawn) [Example 5, (3R)-3-(2-(2-aminothiazol-4-yl)-2-(4-ethyl-2,3-dioxopiperazine-1-carboxamido)acetamido)-2-hydroxy-3,4-dihydro-2H-benzo[e][1,2]oxaborinine-8-carboxylic acid]",–,–,32 to 64,–,–,< 0.25,2 to 4,8 to 16,2 to 4,8 to 16,8 to 16,–,< 0.125,1 to 2,1 to 2,< 0.125,8 to 16
"O=C(O)c1cccc2c1OB(O)[C@@H](NC(=O)C(NC(=O)N1CCN(CCF)C(=O)C1=O)c1ccc(S(=O)(=O)NCCO)cc1)C2 (stereo partly drawn) [Example 213, (3R)-3-(2-(4-(2-fluoroethyl)-2,3-dioxopiperazine-1-carboxamido)-2-(4-(N-(2-hydroxyethyl)sulfamoyl)phenyl)acetamido)-2-hydroxy-3,4-dihydro-2H-benzo[e][1,2]oxaborinine-8-carboxylic acid]",–,–,> 128,–,–,0.5 to 1,8 to 16,32 to 64,2 to 4,> 128,32 to 64,–,0.25 to 0.5,16 to 32,4 to 8,0.25 to 0.5,> 128
"CCN1CCN(C(=O)NC(C(=O)N[C@H]2Cc3ccc(F)c(C(=O)O)c3OB2O)c2ncc(O)cc2Cl)C(=O)C1=O (stereo partly drawn) [Example 151, (3R)-3-(2-(3-chloro-5-hydroxypyridin-2-yl)-2-(4-ethyl-2,3-dioxopiperazine-1-carboxamido)acetamido)-7-fluoro-2-hydroxy-3,4-dihydro-2H-benzo[e][1,2]oxaborinine-8-carboxylic acid]",–,–,> 128,–,–,0.5 to 1,8 to 16,32 to 64,8 to 16,32 to 64,32 to 64,–,< 0.125,4 to 8,1 to 2,0.25 to 0.5,> 128
"CCN1CCN(C(=O)NC(C(=O)N[C@H]2Cc3ccc(Cl)c(C(=O)O)c3OB2O)c2ccc(O)c(O)c2Cl)C(=O)C1=O (stereo partly drawn) [Example 217, (3R)-7-chloro-3-(2-(2-chloro-3,4-dihydroxyphenyl)-2-(4-ethyl-2,3-dioxopiperazine-1-carboxamido)acetamido)-2-hydroxy-3,4-dihydro-2H-benzo[e][1,2]oxaborinine-8-carboxylic acid]",–,–,2 to 4,–,–,2 to 4,2 to 4,2 to 4,2 to 4,2 to 4,2 to 4,–,0.25 to 0.5,4 to 8,16 to 32,1 to 2,8 to 16
"CCN1CCN(C(=O)NC(C(=O)N[C@H]2Cc3cccc(C(=O)O)c3OB2O)c2ccc(C(=O)O)cc2)C(=O)C1=O (stereo partly drawn) [Example 212, (3R)-3-(2-(4-carboxyphenyl)-2-(4-ethyl-2,3-dioxopiperazine-1-carboxamido)acetamido)-2-hydroxy-3,4-dihydro-2H-benzo[e][1,2]oxaborinine-8-carboxylic acid]",–,–,> 128,–,–,< 0.25,8 to 16,32 to 64,2 to 4,> 128,32 to 64,32 to 64,< 0.125,0.25 to 0.5,0.25 to 0.5,< 0.125,–
